{
  "source": "patent EP0563386A1",
  "about": "“ANTICANCER COMPOSITION AND COMPOUND” (NIPPON SHINYAKU COMPANY, LIMITED, priority 1990, dated 1992)",
  "key": {"Meth A fibrosarcoma": {"test_system": "Meth A fibrosarcoma", "assay": "Meth A fibrosarcoma tumor volume in mice (Test Example 2)", "assay_type": "in vivo, BALB/c mice", "conditions": "Test (2): start tumor volume 160-180 mm³; irsogladine maleate 10 mg/kg or 5-fluorouracil 30 mg/kg orally; Fig. 2", "description": "• (1) The homologus tumor Meth A fibrosarcoma subcultured (ascites type) in BALB/c mice, 5 x 10^5 cells, was transplanted subcutaneously at the flank of 6-week-old male BALB/c mice. Mice having a tumor volume of 70-100 mm³ were selected and divided into groups of 9. Oral single daily administration of the test compound was started and the body weight and tumor volume were serially determined. The volume was determined using the same calculation formula as shown in Test Example 1. The compound of the invention irsogladine maleate, 10 mg/kg, suspended in 0.5% methylcellulose maleate and 5-fluorouracil, 15 mg/kg, dissolved in 0.5% methylcellulose solution were respectively administered orally. The control group received 0.5% methylcellulose solution orally. […] The effect of the com pound of this invention as an anticancer agent is, thus, clear. • (2) As in the above test, mice having a tumor volume of 160-180 mm³ were selected and subjected to the same test as above. The compound of this invention irsogladine maleate, 10 mg/kg, 5-flurorouracil, 30 mg/kg, or as a combination therapy, irsogladine maleate, 10 mg/kg, plus 5-fluorouracil, 30 mg/kg, were administered orally. The control group received the same control material as in the above test orally. […] The anticancer adjuvant activity of the compound of this invention to 5-FU is clear.\nThe open circle stands for control, the open triangle for 5-FU and the closed circle for the compound of the invention. The tumor volume (mm³) is plotted on the vertical axis and the number of days after drug administration on the horizontal axis.\nThe open circle stands for control, the open triangle for F-5U, the closed circle for the compound of the invention, the open square for the combination therapy. The tumor volume (mm³) is plotted on the vertical axis and the number of days after drug administration on the horizontal axis."}, "Colon 26 tumor cells [1]": {"test_system": "Colon 26 tumor cells", "assay": "Colon 26 percent tumor inhibition, alone and combined with 5-FU derivatives (Test Example 3)", "assay_type": "in vivo, BALB/c mice", "conditions": "for % Inhibition, Combination: test compound 10 mg/kg orally once daily concurrently with 5-FU derivatives (90 mg/kg total); for % Inhibition, Single drug: test compound 10 mg/kg orally once daily, 5-FU derivatives 30 mg/kg each (90 mg/kg total) orally", "description": "The additive effect of 5-FU derivative and the compound of this invention was tested in terms of percent tumor inhibition. Colon 26 tumor cells were transplanted subcutaneously to groups of 8 BALB/c mice and the treatment was instituted when the tumor volume amounted to about 50-100 mm³. Each of the test com pound was suspended in 0.5% methylcellulose and admin istered orally in a dose of 10 mg/kg once daily for 14 days in (1) and for 21 days in (2) and (3). As 5-FU derivatives Mifurol™, Furtulon™ and Sunfural™ were used, and all the drugs were administered orally in a dose of 30mg/kg, or 90 mg/kg as total dose of three drugs. The combination group received these 5-FU derivatives concurrently with the test drug. The single drug group received each test compound alone orally."}, "Colon 26 tumor cells [2]": {"test_system": "Colon 26 tumor cells", "assay": "Colon 26 life-prolonging effect / survival (Test Example 5)", "assay_type": "in vivo, BALB/c mice", "conditions": "10 mg/kg orally once daily; for life-prolonging effect: Test (2): groups of six, eighty percent of control group died on day 63, Fig. 4", "description": "Furthermore, in the assay of growth inhibitory activity against Colon 26, the life-prolonging effect can be evaluated from the mortality of animals during a period of 4 to 6 weeks after administration.\n• (1) Colon 26 tumor cells were transplanted subcutane ously in groups of six BALB/c mice and the treatment was instituted when the tumor volume amounted to about 100 - 200 mm³. The test drug suspended in 0.5% methyl cellulose was administered orally in a dose of 10 mg/kg once daily during the test period. All animals in the control group (no test drug was contained at all) died on day 34 and all animals given 5-FU derivative died on day 40, whereas none of the animals given the compound of this invention (compound No. 169) died even after day 40. The life-prolonging effect of the compound of this invention is clear. • (2) As in the above (1), Colon 26 tumor cells were transplanted subcutaneously in groups of six BALB/c mice and treatment was instituted when the tumor volume amounted to about 100-200 mm³. The test drug suspended in 0.5% methylcellulose was administered orally in a dose of 10 mg/kg once daily during the test period.\nThe open circle stands for control, the open square for the F-5U derivative group and the closed square for the group given the compound of this invention. The survival rate (%) is plotted on the vertical axis and the number of days after drug administration on the horizontal axis.\nThe open circle stands for the control group, the open square for Compound No. 175 group, the closed circle for Compound No. 210 group, the open triangle for Compound No. 213 group and the closed square for Compound 219 group. The survival rate (%) is plotted on the vertical axis and the number of days after drug administration on the horizontal axis."}, "MDCK cells": {"test_system": "MDCK cells", "assay": "Inhibition of uptake of 5-FU in MDCK cells (Test Example 4)", "assay_type": "cell-based", "conditions": "Canis lupus familiaris, 3H-5FU uptake versus control, harvest time (1, 3 or 5 hours) not given", "description": "In the assay of inhibitory activity against the 5-FU uptake of MDCK cells, the anticancer adjuvant activity of the test compound can be estimated based on the inhibitory effect on the uptake of a known anticancer drug.\nThe inhibitory effect of the compound of this invention on the uptake of 5-FU in MDCK cells was investigated. MDCK cells were seeded on a 24-well culture plate. When the cells became confluent, the test compound (10⁻⁶ - 10⁻⁴ M) and 3H-5FU ([…]) were simultaneously added to the medium and 1, 3 and 5 hours later, cells were harvested to determine the amount of 3H-5FU taken up with a liquid scintillation counter. The percent inhibition to control was calculated."}, "[3]": {"test_system": "WiDr (human colon cancer)", "assay": "Tumor growth inhibition, WiDr implant in nude mice (Test Example 1)", "assay_type": "in vivo, BALB/c nude mice", "conditions": "implant volume on day 18 after transplantation divided by volume at transplantation; irsogladine maleate 10 mg/kg orally once daily from day 14; cyclophosphamide 150 mg/kg intraperitoneally once on day 14; groups of 10", "description": "WiDr (human colon cancer) cells subcultured in BALB/c nude mice were dissected to prepare cubes, about 2 mm³ each. These cubes were transplanted subaxillarily into separate BALB/c nude mice using a transplantation needle. The animals were divided into groups of 10 individuals on day 10 after transplantation and the body weight and the diameter of the implant were serially determined. As the compound of this invention, irsogladine maleate, 10 mg/kg, was suspended in 0.5% methylcellulose solution and administered orally once daily beginning day 14 after transplantation. Cyclophosphamide, 150 mg/kg, was dissolved in PBS and administered intraperitoneally once on day 14 after transplantation. The control group received 0.5% methylcellulose solution orally once daily beginning day 14 after transplantation.\nThe volume of the implant on day 18 after transplantation was divided by the volume at trans plantation. […]\nThe effect of the compound of this invention as an anticancer agent is clear."}, "[4]": {"assay": "Anticancer effect in unspecified in vitro test systems (Test Example 6)", "conditions": "in vitro test systems which the inventor used, not described"}},
  "data": [
    {"smiles": "O=c1[nH]cc(F)c(=O)[nH]1", "note": "[5-FU, 5-fluorouracil, reference compound]", "values": [
      {"measurement": "tumor-inhibitory effect, single drug", "setting": "Meth A fibrosarcoma", "result": "tumor-inhibitory effect"}
    ]},
    {"smiles": "Nc1nc(N)nc(-c2cc(Cl)ccc2Cl)n1", "note": "[Compound No. 169, 2,4-Diamino-6-(2,5-dichlorophenyl)-1,3,5-triazine]", "values": [
      {"measurement": "% Inhibition, Combination", "setting": "Colon 26 tumor cells [1]; Test (1): 14 days", "result": 54.6, "unit": "%"},
      {"measurement": "% Inhibition, Single drug", "setting": "Colon 26 tumor cells [1]; Test (1): 14 days", "result": 18.0, "unit": "%"},
      {"measurement": "% Inhibition, Combination", "setting": "Colon 26 tumor cells [1]; Test (2): 21 days", "result": 84.1, "unit": "%"},
      {"measurement": "% Inhibition, Single drug", "setting": "Colon 26 tumor cells [1]; Test (2): 21 days", "result": 11.6, "unit": "%"},
      {"measurement": "% Inhibition, Combination", "setting": "Colon 26 tumor cells [1]; Test (3): 21 days", "result": 49.9, "unit": "%"},
      {"measurement": "% Inhibition, Single drug", "setting": "Colon 26 tumor cells [1]; Test (3): 21 days", "result": 10.7, "unit": "%"},
      {"measurement": "survival: day on which the animals died", "setting": "Colon 26 tumor cells [2]; Test (1): groups of six, control group all died on day 34, Fig. 3", "result": "> 40", "unit": "days"}
    ]},
    {"smiles": "Nc1nc(N)nc(-c2ccc(Cl)cc2Br)n1", "note": "[Compound No. 210, 2,4-Diamino-6-(2-bromo-4-chlorophenyl)-1,3,5-triazine]", "values": [
      {"measurement": "% Inhibition, Combination", "setting": "Colon 26 tumor cells [1]; Test (2): 21 days", "result": 86.0, "unit": "%"},
      {"measurement": "life-prolonging effect", "setting": "Colon 26 tumor cells [2]", "result": "definite life-prolonging effect"}
    ]},
    {"smiles": "Nc1nc(N)nc(-c2cc(Br)ccc2Cl)n1", "note": "[Compound No. 213, 2,4-Diamino-6-(5-bromo-2-chlorophenyl)-1,3,5-triazine]", "values": [
      {"measurement": "% Inhibition, Combination", "setting": "Colon 26 tumor cells [1]; Test (2): 21 days", "result": 70.4, "unit": "%"},
      {"measurement": "life-prolonging effect", "setting": "Colon 26 tumor cells [2]", "result": "definite life-prolonging effect"}
    ]},
    {"smiles": "Nc1nc(N)nc(-c2ccc(Br)c(Cl)c2)n1", "note": "[Compound No. 219, 2,4-Diamino-6-(4-bromo-3-chlorophenyl)-1,3,5-triazine]", "values": [
      {"measurement": "% Inhibition, Combination", "setting": "Colon 26 tumor cells [1]; Test (2): 21 days", "result": 75.5, "unit": "%"},
      {"measurement": "% Inhibition, Single drug", "setting": "Colon 26 tumor cells [1]; Test (2): 21 days", "result": 10.0, "unit": "%"},
      {"measurement": "life-prolonging effect", "setting": "Colon 26 tumor cells [2]", "result": "definite life-prolonging effect"},
      {"measurement": "inhibition at 100 µM", "setting": "MDCK cells; 10⁻⁴ M", "result": 60, "unit": "%"},
      {"measurement": "inhibition at 10 µM", "setting": "MDCK cells; 10⁻⁵ M", "result": 69, "unit": "%"},
      {"measurement": "inhibition at 1 µM", "setting": "MDCK cells; 10⁻⁶ M", "result": 86, "unit": "%"}
    ]},
    {"smiles": "O=P1(N(CCCl)CCCl)NCCCO1", "note": "(stereo not shown) [Cyclophosphamide, reference compound]", "values": [
      {"measurement": "Tumor volume ratio", "setting": "[3]", "result": "1.52 ± 0.06"}
    ]},
    {"smiles": "CCONc1nc(N)nc(-c2cc(Cl)ccc2Cl)n1", "note": "[compound 183, 2-Amino-4-ethoxyamino-6-(2,5-dichlorophenyl)-1,3,5-triazine]", "values": [
      {"measurement": "anticancer effect in vitro", "setting": "[4]", "result": "strong anticancer effect"}
    ]},
    {"smiles": "Nc1nc(N)nc(-c2cc(Br)ccc2F)n1", "note": "[compound 215, 2,4-Diamino-6-(5-bromo-2-fluorophenyl)-1,3,5-triazine]", "values": [
      {"measurement": "anticancer effect in vitro", "setting": "[4]", "result": "strong anticancer effect"}
    ]},
    {"smiles": "COc1ccccc1-c1nc(N)nc(N)n1", "note": "[compound 255, 2,4-Diamino-6-(2-methoxyphenyl)-1,3,5-triazine]", "values": [
      {"measurement": "anticancer effect in vitro", "setting": "[4]", "result": "strong anticancer effect"}
    ]},
    {"smiles": "Nc1nc(N)nc(-c2cc([N+](=O)[O-])ccc2Cl)n1", "note": "[compound 374, 2,4-Diamino-6-(2-chloro-5-nitrophenyl)-1,3,5-triazine]", "values": [
      {"measurement": "anticancer effect in vitro", "setting": "[4]", "result": "strong anticancer effect"}
    ]},
    {"smiles": "Cc1ccc(Cl)cc1-c1nc(N)nc(N)n1", "note": "[compound 380, 2,4-Diamino-6-(5-chloro-2-methylphenyl)-1,3,5-triazine]", "values": [
      {"measurement": "anticancer effect in vitro", "setting": "[4]", "result": "strong anticancer effect"}
    ]},
    {"smiles": "Nc1nc(N)[n+]([O-])c(-c2cc(Cl)ccc2Cl)n1", "note": "[compound 1001, 2,4-Diamino-6-(2,5-dichlorophenyl)-1,3,5-triazine N-oxide]", "values": [
      {"measurement": "anticancer effect in vitro", "setting": "[4]", "result": "strong anticancer effect"}
    ]}
  ]
}
